From the supplement of paper PMC10307832

How the values were obtained:
Experiment in all cases: relative viability (nuclei count vs DMSO), 5 days (fraction); higher = more cells survive
Ispinesib + OSI-027 = compound: Cc1ccc(C(=O)N(CCCN)[C@@H](c2nc3cc(Cl)ccc3c(=O)n2Cc2ccccc2)C(C)C)cc1 [Ispinesib] + COc1cccc2cc(-c3nc([C@H]4CC[C@H](C(=O)O)CC4)n4ncnc(N)c34)[nH]c12 [OSI-027] (partner 0.5 µM)
Summary of the method: (§1)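 Dosing by pin tool came one day after lung cancer cell lines were seeded in 1536-well plates, using either one drug or a fixed anchor-drug dose plus five library-drug doses (not always all listed) in √10 steps. After 5 days, nuclei were counted on 4× images. Relative viability is treated-well nuclei count divided by vehicle-well nuclei count, and values are medians of duplicate plates.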

Linsitinib + Pemetrexed = compound: C[C@]1(O)C[C@@H](c2nc(-c3ccc4ccc(-c5ccccc5)nc4c3)c3c(N)nccn32)C1 [Linsitinib] + Nc1nc2[nH]cc(CCc3ccc(C(=O)N[C@@H](CCC(=O)O)C(=O)O)cc3)c2c(=O)[nH]1 [Pemetrexed] (partner 0.2 µM)
Summary of the method: as §1

Linsitinib + Lapatinib = compound: C[C@]1(O)C[C@@H](c2nc(-c3ccc4ccc(-c5ccccc5)nc4c3)c3c(N)nccn32)C1 [Linsitinib] + CS(=O)(=O)CCNCc1ccc(-c2ccc3ncnc(Nc4ccc(OCc5cccc(F)c5)c(Cl)c4)c3c2)o1 [Lapatinib] (partner 2 µM)
Summary of the method: as §1

Ispinesib + Phenformin = compound: Cc1ccc(C(=O)N(CCCN)[C@@H](c2nc3cc(Cl)ccc3c(=O)n2Cc2ccccc2)C(C)C)cc1 [Ispinesib] + N=C(N)NC(=N)NCCc1ccccc1 [Phenformin] (partner 250 µM)
Summary of the method: as §1

Cell Line	relative viability (Ispinesib + OSI-027; first compound 0.001 µM)	relative viability (Ispinesib + OSI-027; first compound 0.003162 µM)	relative viability (Ispinesib + OSI-027; first compound 0.01 µM)	relative viability (Ispinesib + OSI-027; first compound 0.03162 µM)	relative viability (Ispinesib + OSI-027; first compound 0.1 µM)	relative viability (Linsitinib + Pemetrexed; first compound 0.01 µM)	relative viability (Linsitinib + Pemetrexed; first compound 0.03162 µM)	relative viability (Linsitinib + Pemetrexed; first compound 0.1 µM)	relative viability (Linsitinib + Pemetrexed; first compound 0.3162 µM)	relative viability (Linsitinib + Pemetrexed; first compound 1 µM)	relative viability (Linsitinib + Lapatinib; first compound 0.01 µM)	relative viability (Linsitinib + Lapatinib; first compound 0.03162 µM)	relative viability (Linsitinib + Lapatinib; first compound 0.1 µM)	relative viability (Linsitinib + Lapatinib; first compound 0.3162 µM)	relative viability (Linsitinib + Lapatinib; first compound 1 µM)	relative viability (Ispinesib + Phenformin; first compound 0.001 µM)	relative viability (Ispinesib + Phenformin; first compound 0.003162 µM)	relative viability (Ispinesib + Phenformin; first compound 0.01 µM)	relative viability (Ispinesib + Phenformin; first compound 0.03162 µM)	relative viability (Ispinesib + Phenformin; first compound 0.1 µM)
NCI-H596	0.818	0.674	0.951	0.625	0.29	0.552	0.428	0.497	0.447	0.46	1.05	1.07	1.05	0.965	0.991	0.676	0.791	0.765	0.791	0.315
NCI-H460	0.787	0.835	1.03	0.417	0.0414	0.0547	0.0538	0.065	–	0.0715	1	0.784	1.03	0.699	0.868	0.557	0.579	0.559	0.0429	0.032
NCI-H647	0.76	0.696	0.766	0.235	0.107	0.228	0.115	0.185	0.172	0.197	1.12	1.11	1.09	–	0.854	0.609	0.476	0.52	0.0907	0.126
NCI-H838	0.425	0.359	0.539	0.436	0.197	0.252	0.209	0.256	0.214	0.212	0.963	0.929	0.883	0.286	0.591	0.649	0.605	0.827	0.194	0.163
PC-14	0.983	0.791	0.256	0.0319	0.0859	0.137	0.0865	0.16	0.121	0.148	0.281	0.301	0.303	0.31	0.257	0.607	0.755	0.338	0.122	0.0821
NCI-H358	0.999	0.837	1.02	0.392	0.129	0.187	0.168	0.183	0.141	0.162	0.423	0.388	0.388	0.366	0.303	0.391	0.351	0.266	0.102	0.0986
NCI-H1915	0.679	0.514	0.751	0.252	0.212	0.558	0.291	0.495	0.588	0.486	0.984	1.01	0.981	0.608	0.723	0.413	0.372	0.392	0.165	0.176
201T	0.828	0.952	0.834	0.56	0.181	0.319	0.272	0.343	0.287	0.29	0.967	1.06	1.07	0.789	0.978	0.462	0.533	0.559	0.427	0.24
